From patent EP1156056A1, “5-GLYCOSYLOXY-6-HYDROXYNAPHTHO 2,3-f]QUINOLINE-7,12-DIONE HAVING ANTICANCER ACTIVITIES” (ZAIDAN HOJIN BISEIBUTSU KAGAKU KENKYU KAI, priority 1999, dated 2000) come the findings set out here.

The test system of data set [1] is all human cancer cells as tested. Briefly: Inhibition of proliferation of cancer cells in culture, all human cancer cells as tested. The data set is classed as cell-based. The procedure: (§1) A culture medium for cancer cells was put into test tubes. To the culture medium in each tube, there was transplanted each of such various mouse cancer cells or human cancer cells as shown in Table 1 below. The cells so transplanted were cultivated under the conditions at 37°C in an air atmosphere containing 5 % CO2. To the medium containing the cancer cells so cultivated, there was added said Compounds A, B, D, E or F of this invention at different concentrations, as the test compound. […] As the comparative compound, adriamycin now clinically used was tested to repeat the test in the same way.
Namely, they are mouse colon cancer (colon 26), mouse B-cell lymphoma (LB32T), mouse lymphoma (L-1210), human cervical cancer (HeLa), human acute promyeloleukemia (HL60), human prostatic cancer (PC3), human pudendal squamous cell carcinoma (A431), human pulmonary carcinoma (PC6), human mastocarcinoma (MCF7), human esophageal carcinoma (TT), human prostatic cancer (LNcap) and human colon cancer (DLD-1). […]

Data set [2] relates to human acute promyeloleukemia (HL60). Briefly: Inhibition of proliferation of cancer cells in culture (Test Examples 1 and 3). It counts as cell-based. Here is the method:
as §1
(§2) Namely, they are mouse colon cancer (colon 26), mouse B-cell lymphoma (LB32T), mouse lymphoma (L-1210), human cervical cancer (HeLa), human acute promyeloleukemia (HL60), human prostatic cancer (PC3), human pudendal squamous cell carcinoma (A431), human pulmonary carcinoma (PC6), human mastocarcinoma (MCF7), human esophageal carcinoma (TT), human prostatic cancer (LNcap) and human colon cancer (DLD-1).
(§3) The test method and the nature of cancer cells to be tested are the same as those in Test Example 1 given hereinbefore. In this Test Example 3, however, eight kinds of cancer cells indicated in Table 3 below are used, among the twelve kinds of cancer cells which were used in Test Example 1.
(§4) As the test results of measurement, the evaluated values of the concentration of each test compound which could inhibit the proliferation of cancer cells by 50 % (namely, 50 % inhibitory concentration:IC50, µg/ml) are given in Table 3.

The subject of data set [3] is human cervical cancer (HeLa). The data set is described as above. The data set is classed as cell-based. The procedure: as §1, §2, §3, §4
For data set [4], the system named is human colon cancer (DLD-1). The description is as above. It counts as cell-based. Conditions: for IC50: Homo sapiens. The procedure: as §1, §2, §3, §4
Data set [5] has as its system human prostatic cancer (LNcap). Described as above. The data set is classed as cell-based. Here is the method:
as §1, §2, §3, §4

Data set [6] relates to human prostatic cancer (PC3). The data set is described as above. It counts as cell-based. Conditions: for IC50: Homo sapiens. The procedure: as §1, §2, §3, §4
In data set [7] the test system is mouse B-cell lymphoma (LB32T). Described as above. It counts as cell-based. The procedure:
as §1, §2, §3, §4

In data set [8] the test system is mouse colon cancer (colon 26). The data set is described as above. The data set is classed as cell-based. Here is the method:
as §1, §2, §3, §4

For another data set, the system named is mouse lymphoma (L-1210). Described as above. The data set is classed as cell-based. Here is the method: as §1, §2, §3, §4
Data set [9] relates to human esophageal carcinoma (TT). As to the kind of experiment: Inhibition of proliferation of cancer cells in culture (Test Example 1). The data set is classed as cell-based. Particulars: 72 hours cultivation, read-out: Concentration of test compound to inhibit the proliferation of cancer cells by 50 %. The procedure:
as §1, §2

Data set [10] concerns human mastocarcinoma (MCF7). The description is as above. It counts as cell-based. Particulars: 72 hours cultivation, read-out: Concentration of test compound to inhibit the proliferation of cancer cells by 50 %. The procedure:
as §1, §2

Data set [11] has as its system human pudendal squamous cell carcinoma (A431). Described as above. It counts as cell-based. Particulars: A-431, 72 hours cultivation, read-out: Concentration of test compound to inhibit the proliferation of cancer cells by 50 %. The procedure: as §1, §2
Data set [12] concerns human pulmonary carcinoma (PC6). The data set is described as above. The data set is classed as cell-based. Particulars: 72 hours cultivation, read-out: Concentration of test compound to inhibit the proliferation of cancer cells by 50 %. The procedure:
as §1, §2

The next data set relates to ICR mice. Briefly: Acute toxicity in mice, survival after intraperitoneal administration (Test Example 2). Here is the method: In this Test Example, the acute toxicity of Compound A of this invention as administered to mice was evaluated. […] By way of comparison, similar test was carried out with adriamycin (in the form of hydrochloride) .
The mark [13] stands for this setting: HL-60, 72 hours cultivation, Test Example 1, read-out: Concentration of test compound to inhibit the proliferation of cancer cells by 50 %, IC50.
Where [14] appears, read: 72 hours cultivation, Test Example 1, read-out: Concentration of test compound to inhibit the proliferation of cancer cells by 50 %, IC50.
The mark [15] stands for this setting: Test Example 3, Compounds N to T used as trifluoroacetate, read-out: IC50.
[16] abbreviates: LNcap, 72 hours cultivation, Test Example 1, read-out: Concentration of test compound to inhibit the proliferation of cancer cells by 50 %, IC50.
Setting [17] is: colon26, 72 hours cultivation, Test Example 1, read-out: Concentration of test compound to inhibit the proliferation of cancer cells by 50 %, IC50.
Setting [18] is: L1210, 72 hours cultivation, Test Example 1, read-out: Concentration of test compound to inhibit the proliferation of cancer cells by 50 %, IC50.
Setting [19] is: Test Example 1, relative to adriamycin.
[20] abbreviates: ICR, mouse, in vivo, ip, 14 days.

The structures appear in SMILES notation. Values after ≈ are worked out from the molar mass of the structure shown. Where two headings read alike, the source gives them in different places. Some results are limits rather than exact numbers.

Turning to `COc1c2c(c3cccnc3c1O[C@@H]1O[C@@H](C)[C@@H](O)[C@@H](O)[C@H]1F)C(=O)c1ccccc1C2=O` [5-(2,6-dideoxy-2-fluoro-α-L-talopyranosyloxy)-6-methoxy-naphtho[2,3-f]-quinoline-7,12-dione], in data set [1], the IC50 is below 100 mg/L and the anticancer activity result is given as “does not exhibit any appreciable anticancer activity”.

As for `COc1cccc2c1C(=O)c1c(O)c3c(c(O)c1C2=O)C[C@@](O)(C(=O)CO)C[C@@H]3O[C@H]1C[C@H](N)[C@H](O)[C@H](C)O1` [Adriamycin, reference compound], the IC50 in data set [2] (setting [13]) came to 0.03 mg/L (≈ 0.0552 µM); in [2] (HL-60, Test Example 3, Compounds N to T used as trifluoroacetate, read-out: IC50) it was 0.03 mg/L (≈ 0.0552 µM); in data set [3] (setting [14]), 0.06 mg/L (≈ 0.11 µM); in data set [3] (setting [15]), 0.06 mg/L (≈ 0.11 µM); in data set [4] (setting [14]), 1.9 mg/L (≈ 3.5 µM); in data set [4] (setting [15]) it was 3.4 mg/L (≈ 6.26 µM). Moreover, the IC50 in [5] (LNCap, Test Example 3, Compounds N to T used as trifluoroacetate, read-out: IC50) came to 0.1 mg/L (≈ 0.184 µM); in data set [5] (setting [16]) it was 0.07 mg/L (≈ 0.129 µM); in data set [6] (setting [14]), 0.9 mg/L (≈ 1.66 µM); in [6] (setting [15]) it was 1.14 mg/L (≈ 2.1 µM); in data set [7] (setting [14]) it was 0.03 mg/L (≈ 0.0552 µM); in [7] (setting [15]), 0.04 mg/L (≈ 0.0736 µM). The IC50 in [8] (Colon26, Test Example 3, Compounds N to T used as trifluoroacetate, read-out: IC50) turned out to be 0.09 mg/L (≈ 0.166 µM); in data set [8] (setting [17]), 0.07 mg/L (≈ 0.129 µM); in the data set on mouse lymphoma (L-1210) (setting [18]), 0.24 mg/L (≈ 0.442 µM); in the data set with mouse lymphoma (L-1210) (L1210, Test Example 3, Compounds N to T used as trifluoroacetate, read-out: IC50), 0.38 mg/L (≈ 0.699 µM); in data set [9], 1.38 mg/L (≈ 2.54 µM); in data set [10], 1.02 mg/L (≈ 1.88 µM). Also, the IC50 is 1.33 mg/L (≈ 2.45 µM) in data set [11] and 1.01 mg/L (≈ 1.86 µM) in data set [12]. For the same compound, the “dosage at which the total number of mice survived for 14 days” value in the data set with ICR mice (ICR mice, intraperitoneal, 14 days) was 0.125 mg/mouse. Also, the “Survival day(s) of respective mice” value with ICR mice (ICR mice, intraperitoneal, dosage 0.125 mg/mouse, 4 mice per group, observed 14 days) was >14 (all mice) day(s).

In the case of `C[C@@H]1O[C@@H](Oc2c(O)c3c(c4cccnc24)C(=O)c2ccccc2C3=O)[C@H](F)[C@H](O)[C@@H]1O` [Compound A, 5-(2,6-dideoxy-2-fluoro-α-L-talopyranosyloxy)-6-hydroxynaphtho[2,3-f]quinoline-7,12-dione], the IC50 in [2] (setting [13]) came to 0.36 mg/L (≈ 0.819 µM); in data set [3] (setting [14]) it was 0.46 mg/L (≈ 1.05 µM); in data set [4] (setting [14]) it was 0.12 mg/L (≈ 0.273 µM); in data set [5] (setting [16]) it was 0.28 mg/L (≈ 0.637 µM); in data set [6] (setting [14]), 0.16 mg/L (≈ 0.364 µM); in [7] (setting [14]), 0.43 mg/L (≈ 0.979 µM). The IC50 was found to be 0.32 mg/L (≈ 0.728 µM) in [8] (setting [17]); 0.59 mg/L (≈ 1.34 µM) in the data set on mouse lymphoma (L-1210) (setting [18]); 3.16 mg/L (≈ 7.19 µM) in data set [9]; 2.23 mg/L (≈ 5.08 µM) in data set [10]; 3.36 mg/L (≈ 7.65 µM) in [11]; 4.34 mg/L (≈ 9.88 µM) in data set [12]. Besides, the “anticancer activities against DLD-1, times higher than those of adriamycin” value in [4] (setting [19]) was found to be 16 times. Further, the “anticancer activities against PC3, times higher than those of adriamycin” value in [6] (setting [19]) was 5.6 times. The “Survival day(s) of respective mice” value in the data set with ICR mice (setting [20]) is >14 (all mice) day(s). Also, the “dosage at which the total number of mice survived for 14 days” value in the data set on ICR mice (setting [20]) turned out to be 4 mg/mouse.
